These results are taken from ChEMBL document CHEMBL3872236, “Discovery of 2-((2-chloro-6-fluorophenyl)amino)-N-(3-fluoro-5-(trifluoromethyl)phenyl)-1-methyl-7,8-dihydro-1H-[1,4]dioxino[2',3':3,4]benzo[1,2-d]imidazole-5-carboxamide as potent, selective and efficacious microsomal prostaglandin E2 synthase-1 (mPGES-1) inhibitor” (Bioorg Med Chem Lett, 2016).

The structures appear in SMILES notation.

What is called share remaining is what is left of the initial amount, in per cent. A higher share remaining goes with greater stability.

Data set [1] in a line: in vitro. As to conditions: human, liver microsomes.
The nature of data set [2]: in vitro. As to conditions: guinea pig, liver microsomes. Background: Liver microsomes are vesicles of endoplasmic reticulum, rich in cytochrome P450 enzymes.
A short description of data set [3]: in vitro. The conditions noted are these: rat, liver microsomes.

In the case of `O=C(Nc1cc(F)cc(C(F)(F)F)c1)c1cc2nc(Nc3c(F)cccc3Cl)[nH]c2c2c1OCCO2`, the share remaining at 1 h, 1 µM was found to be 98.2% in the data set “in vitro [1]”, 95.8% in the data set “in vitro [2]” and 93.8% in “in vitro [3]”.
